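Briefly, cells in 96-well plates were exposed to five compound concentrations for 48 h, and endpoints were estimated by linear interpolation. GI50 marks 50% less growth.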 Activity calls are given as the source filed them. No stated cut-off is given here; in the data, active = GI50 up to about 1.1 µM and inactive = higher.
What was measured:
Experiment in all cases: DTP human tumour cell line panel, 48 h
[1] = tested on: HT-29
[2] = tested on: SF-295
[3] = tested on: SN12C
[4] = tested on: NCI-H460
[5] = tested on: COLO 205
[6] = tested on: ACHN
[7] = tested on: SK-MEL-2
[8] = tested on: Malme-3M
[9] = tested on: MOLT-4
[10] = tested on: OVCAR-5
[11] = tested on: NCI-H522
[12] = tested on: UO-31
[13] = tested on: Hs-578T
[14] = tested on: SW-620
[15] = tested on: OVCAR-8
[16] = tested on: A498
[17] = tested on: HOP-62
[18] = tested on: RXF 393
[19] = tested on: T47D
[20] = tested on: BT-549
[21] = tested on: MCF7
[22] = tested on: UACC-257
[23] = tested on: SNB-19
[24] = tested on: OVCAR-4
[25] = tested on: SK-MEL-5
[26] = tested on: SNB-75
[27] = tested on: MDA-MB-435
[28] = tested on: MDA-N
[29] = tested on: CAKI-1
[30] = tested on: A549
[31] = tested on: LOX IMVI
[32] = tested on: SK-OV-3
[33] = tested on: 786-0
[34] = tested on: HL-60
[35] = tested on: SR
[36] = tested on: SF-539
[37] = tested on: DU-145
[38] = tested on: SF-268
[39] = tested on: KM12
[40] = tested on: UACC-62
[41] = tested on: NCI/ADR-RES
[42] = tested on: HCT-116
[43] = tested on: RPMI-8226
[44] = tested on: NCI-H23
[45] = tested on: K562
[46] = tested on: CCRF-CEM
[47] = tested on: SK-MEL-28
[48] = tested on: PC-3
[49] = tested on: EKVX
[50] = tested on: M14
[51] = tested on: HCC 2998
[52] = tested on: NCI-H226
[53] = tested on: HCT-15
[54] = tested on: IGROV-1
[55] = tested on: OVCAR-3
[56] = tested on: HOP-92
[57] = tested on: U-251
[58] = tested on: TK-10
[59] = tested on: MDA-MB-231

Question: With `COc1ccc(/C=C2\C[C@H]3[C@@H]4CCC5=CC(=O)CC[C@]5(C)[C@H]4CC[C@]3(C)C2=O)cc1OC` as the compound, how does the GI50 [1] read?
Answer: 6.87 µM (inactive)

Question: And the GI50 [2]?
Answer: 0.0635 µM (active)

Question: And the GI50 [3]?
Answer: 14.4 µM (inactive)

Question: And the GI50 [4]?
Answer: 6.93 µM (inactive)

Question: And the GI50 [5]?
Answer: 3.1 µM (inactive)

Question: What about the GI50 [6] of the same compound?
Answer: 9.04 µM (inactive)

Question: What about the GI50 [7] of the same compound?
Answer: 4.13 µM (inactive)

Question: What about the GI50 [8] of the same compound?
Answer: 8.65 µM (inactive)

Question: And the GI50 [9]?
Answer: 3.44 µM (inactive)

Question: What about the GI50 [10] of the same compound?
Answer: 32.4 µM (inactive)

Question: And the GI50 [11]?
Answer: 2.74 µM (inactive)

Question: What about the GI50 [12] of the same compound?
Answer: 2.42 µM (inactive)

Question: And the GI50 [13]?
Answer: 45.8 µM (inactive)

Question: What about the GI50 [14] of the same compound?
Answer: 21.1 µM (inactive)

Question: And the GI50 [15]?
Answer: 2.6 µM (inactive)

Question: And the GI50 [16]?
Answer: 3.25 µM (inactive)

Question: What about the GI50 [17] of the same compound?
Answer: 0.332 µM (active)

Question: And the GI50 [18]?
Answer: 18 µM (inactive)

Question: What about the GI50 [19] of the same compound?
Answer: 3.56 µM (inactive)

Question: What about the GI50 [20] of the same compound?
Answer: 6.34 µM (inactive)

Question: And the GI50 [21]?
Answer: 4.67 µM (inactive)

Question: What about the GI50 [22] of the same compound?
Answer: 4.6 µM (inactive)

Question: What about the GI50 [23] of the same compound?
Answer: 44.6 µM (inactive)

Question: What about the GI50 [24] of the same compound?
Answer: 13.2 µM (inactive)

Question: And the GI50 [25]?
Answer: 2.46 µM (inactive)

Question: And the GI50 [26]?
Answer: > 100 µM (inactive)

Question: What about the GI50 [27] of the same compound?
Answer: 5.48 µM (inactive)

Question: And the GI50 [28]?
Answer: 5.94 µM (inactive)

Question: And the GI50 [29]?
Answer: 6.97 µM (inactive)

Question: What about the GI50 [30] of the same compound?
Answer: 5.58 µM (inactive)

Question: What about the GI50 [31] of the same compound?
Answer: 11.9 µM (inactive)

Question: What about the GI50 [32] of the same compound?
Answer: 0.0627 µM (active)

Question: What about the GI50 [33] of the same compound?
Answer: 35.8 µM (inactive)

Question: And the GI50 [34]?
Answer: 1.37 µM (inactive)

Question: What about the GI50 [35] of the same compound?
Answer: 2.81 µM (inactive)

Question: What about the GI50 [36] of the same compound?
Answer: 40 µM (inactive)

Question: What about the GI50 [37] of the same compound?
Answer: 41.2 µM (inactive)

Question: And the GI50 [38]?
Answer: > 100 µM (inactive)

Question: And the GI50 [39]?
Answer: 0.279 µM (active)

Question: And the GI50 [40]?
Answer: 6.24 µM (inactive)

Question: And the GI50 [41]?
Answer: 6.27 µM (inactive)

Question: And the GI50 [42]?
Answer: 8.05 µM (inactive)

Question: What about the GI50 [43] of the same compound?
Answer: 3.89 µM (inactive)

Question: And the GI50 [44]?
Answer: 17.6 µM (inactive)

Question: And the GI50 [45]?
Answer: 3.8 µM (inactive)

Question: What about the GI50 [46] of the same compound?
Answer: 2.19 µM (inactive)

Question: And the GI50 [47]?
Answer: 40.7 µM (inactive)

Question: And the GI50 [48]?
Answer: 5.51 µM (inactive)

Question: What about the GI50 [49] of the same compound?
Answer: 8.41 µM (inactive)

Question: What about the GI50 [50] of the same compound?
Answer: 14.9 µM (inactive)

Question: And the GI50 [51]?
Answer: 21.8 µM (inactive)

Question: And the GI50 [52]?
Answer: 11.1 µM (inactive)

Question: What about the GI50 [53] of the same compound?
Answer: 9.25 µM

Question: What about the GI50 [54] of the same compound?
Answer: 10.4 µM (inactive)

Question: What about the GI50 [55] of the same compound?
Answer: 17.5 µM (inactive)

Question: And the GI50 [56]?
Answer: 5.27 µM (inactive)

Question: For `O=C(O)c1ccc(NNc2cc(=O)[nH]c(=O)[nH]2)cc1`, which GI50 [1] is on record?
Answer: > 100 µM (inactive)

Question: And the GI50 [2]?
Answer: > 100 µM (inactive)

Question: What about the GI50 [3] of the same compound?
Answer: > 100 µM (inactive)

Question: And the GI50 [4]?
Answer: > 100 µM (inactive)

Question: What about the GI50 [5] of the same compound?
Answer: > 100 µM (inactive)

Question: What about the GI50 [6] of the same compound?
Answer: > 100 µM (inactive)

Question: And the GI50 [7]?
Answer: > 100 µM (inactive)

Question: What about the GI50 [8] of the same compound?
Answer: > 100 µM (inactive)

Question: And the GI50 [9]?
Answer: > 100 µM (inactive)

Question: What about the GI50 [10] of the same compound?
Answer: > 100 µM (inactive)

Question: What about the GI50 [12] of the same compound?
Answer: > 100 µM (inactive)

Question: What about the GI50 [13] of the same compound?
Answer: > 100 µM (inactive)

Question: What about the GI50 [14] of the same compound?
Answer: > 100 µM (inactive)

Question: What about the GI50 [15] of the same compound?
Answer: > 100 µM (inactive)

Question: And the GI50 [16]?
Answer: > 100 µM (inactive)

Question: What about the GI50 [57] of the same compound?
Answer: > 100 µM (inactive)

Question: What about the GI50 [17] of the same compound?
Answer: > 100 µM (inactive)

Question: And the GI50 [18]?
Answer: > 100 µM (inactive)

Question: What about the GI50 [19] of the same compound?
Answer: > 100 µM (inactive)

Question: What about the GI50 [20] of the same compound?
Answer: > 100 µM (inactive)

Question: What about the GI50 [21] of the same compound?
Answer: > 100 µM (inactive)

Question: And the GI50 [22]?
Answer: > 100 µM (inactive)

Question: What about the GI50 [23] of the same compound?
Answer: > 100 µM (inactive)

Question: What about the GI50 [24] of the same compound?
Answer: > 100 µM (inactive)

Question: And the GI50 [25]?
Answer: > 100 µM (inactive)

Question: What about the GI50 [26] of the same compound?
Answer: 96.8 µM (inactive)

Question: What about the GI50 [58] of the same compound?
Answer: > 100 µM (inactive)

Question: What about the GI50 [28] of the same compound?
Answer: > 100 µM (inactive)

Question: What about the GI50 [29] of the same compound?
Answer: > 10 µM (inactive)

Question: What about the GI50 [30] of the same compound?
Answer: > 100 µM (inactive)

Question: And the GI50 [31]?
Answer: > 100 µM (inactive)

Question: What about the GI50 [32] of the same compound?
Answer: > 100 µM (inactive)

Question: And the GI50 [33]?
Answer: > 100 µM (inactive)

Question: What about the GI50 [34] of the same compound?
Answer: > 100 µM (inactive)

Question: What about the GI50 [35] of the same compound?
Answer: > 100 µM (inactive)

Question: And the GI50 [36]?
Answer: > 100 µM (inactive)

Question: And the GI50 [37]?
Answer: > 100 µM (inactive)

Question: What about the GI50 [38] of the same compound?
Answer: > 100 µM (inactive)

Question: What about the GI50 [39] of the same compound?
Answer: > 100 µM (inactive)

Question: And the GI50 [40]?
Answer: > 100 µM (inactive)

Question: What about the GI50 [41] of the same compound?
Answer: > 100 µM (inactive)

Question: What about the GI50 [42] of the same compound?
Answer: > 100 µM (inactive)

Question: And the GI50 [43]?
Answer: > 100 µM (inactive)

Question: What about the GI50 [44] of the same compound?
Answer: > 100 µM (inactive)

Question: What about the GI50 [59] of the same compound?
Answer: > 100 µM (inactive)

Question: What about the GI50 [45] of the same compound?
Answer: > 100 µM (inactive)

Question: And the GI50 [46]?
Answer: > 100 µM (inactive)

Question: And the GI50 [47]?
Answer: > 100 µM (inactive)

Question: What about the GI50 [48] of the same compound?
Answer: 24.4 µM (inactive)

Question: And the GI50 [49]?
Answer: > 100 µM (inactive)

Question: What about the GI50 [50] of the same compound?
Answer: > 100 µM (inactive)

Question: And the GI50 [51]?
Answer: > 100 µM (inactive)

Question: What about the GI50 [52] of the same compound?
Answer: > 100 µM (inactive)

Question: And the GI50 [53]?
Answer: > 100 µM

Question: And the GI50 [54]?
Answer: > 100 µM (inactive)

Question: And the GI50 [55]?
Answer: > 100 µM (inactive)

Reference: ChEMBL document CHEMBL1201862, “PubChem BioAssay data set” (2004)
